# In patent US20240390395A1, “APPLICATION OF ION CHANNEL BLOCKER IN TREATMENT AND/OR PREVENTION OF HEPATIC FIBROSIS” (Affiliated Hospital of Zunyi Medical University, priority 2023, published 2024):
# Key:
# LC3 [1] = assay: LC3 in HSCs detected by Western blotting; type: cell-based, rat; conditions: HSCs-T6; gliclazide 100 βM; TGF-β1 10 ng/ml; 48 hours
# Procedure: (§1) Experimental materials include HSCs-T6, a DMEM complete culture medium, cell culture dishes, a cell lysis solution, a PBS solution, a BCA protein assay kit, non-fat powdered milk, primary antibodies and corresponding secondary antibodies related to α-SMA, LC3, and p62. Experimental method is as follows. First, this experiment is divided into a normal group, a TGF-β1 group, a gliclazide +TGF-β1 group, and a gliclazide group. The concentration of the TGF-β1 is 10 ng/ml, and the concentration of the gliclazide is 100 βM. The the HSCs-T6 is cultured by using the cell culture dish, and inoculated, administrated, added with TGF-β1 according to the conditions described in the embodiment 4. After 48 hours, the incubated cells are rinsed by the precooled PBS solution for 3-4 times, and residual PBS liquid is absorbed with a filter paper, 50 μL radioimmune precipitation assay (RIPA) buffer and 0.5 μL (100:1) phenylmethanesulfonyl fluoride (PMSF) with a concentration of 100millimoles per liter (mmol/L) are added in a 50 mL culture flask and placed on ice for 30 minutes. Then, the protein is scraped by a cell scraper from the culture flask and suctioned out into the EP tubes, and centrifuged at 12000 rpm for 30 minutes at 4° C. […] The OD value at 560 nm is measured by using ELISA on the machine to calculate the concentration of the protein. […]
# p62 [2] = assay: p62 in HSCs detected by Western blotting; type: cell-based, rat; conditions: HSCs-T6; gliclazide 100 βM; TGF-β1 10 ng/ml; 48 hours
# Procedure: as §1
# α-SMA [3] = assay: α-SMA in hepatic tissues detected by Western blotting; type: in vivo, mouse; conditions: CCl4-induced hepatic fibrosis mice; gliclazide solution 500 μM intraperitoneal
# Procedure: (§2) The mice are randomly divided into four groups including a, b, c, and d. • a. Normal control group. • b. Model group: mice are intragastrically administered with the CCl4 solution, 0.1 mL/20 g (i.e., 0.1. mL CC14 per 20 g of body weight of mice), twice a week for 8 weeks. • c. CCl4+gliclazide group: mice are intragastrically administered with the CCl4 solution alone, 0.1 mL/20 g, twice a week for 2 weeks; then the mice are given with the gliclazide solution and the CCl4 solution together for 6 weeks; and an administration method of the gliclazide solution is 0.2mL/20g and intraperitoneal injection once a day. • d. Gliclazide group: the gliclazide solution is intraperitoneally injected into mice for 8 weeks; and an administration method of the gliclazide solution is 0.2 mL/20 g and intraperitoneal injection once a day. Experimental materials include mouse hepatic tissues, a tweezer, a scissor, steel balls with a size of 2 millimeters (mm), a magnet, a cell lysis solution, a PBS solution, a bicinchoninic acid (BCA) protein assay kit, non-fat powdered milk, primary antibodies and corresponding secondary antibodies related to α-SMA, LC3, and p62. An experimental method is as follows. […] The optical density (OD) value at 560 nanometers (nm) is measured by using an enzyme-linked immunosorbent assay (ELISA) on the machine to calculate the concentration of the protein. […]
# α-SMA [4] = assay: α-SMA in HSCs detected by Western blotting; type: cell-based, rat; conditions: HSCs-T6; gliclazide 100 βM; TGF-β1 10 ng/ml; 48 hours
# Procedure: as §1
# α-SMA [5] = assay: α-SMA in HSCs added with autophagy agonist rapamycin, Western blotting; type: cell-based, rat; conditions: HSCs-T6; gliclazide 100 βM; TGF-β1 10 ng/ml; 48 hours; P<0.05
# Procedure: Experimental materials include HSCs-T6, rapamycin, a DMEM complete culture medium, cell culture dishes, a cell lysis solution, a PBS solution, a BCA protein assay kit, non-fat powdered milk, primary antibodies and corresponding secondary antibodies related to α-SMA, LC3, and p62.
# Experimental method is as follows. First, this experiment is divided into a normal group, a TGF-β1 group, a gliclazide +TGF-β1 group, and a gliclazide +TGF-β1 +rapamycin group. The concentration of the TGF-β1 is 10 ng/ml, the concentration of the gliclazide is 100 βM, and the concentration of the rapamycin is 100 nanomoles per liter (nM). The TGF-β1 is added at the same time as that in the embodiment 5, and rapamycin and gliclazide are added simultaneously. After 48 hours of incubation, the above groups are detected by the BCA protein assay kit and Western blotting.
# [6] = tested on: CCl4-induced hepatic fibrosis mice; assay: CCl4-induced mouse hepatic fibrosis, HE staining and Sirius-red staining of hepatic tissue; type: in vivo; conditions: gliclazide solution 500 μM, C57 mice
# Procedure: Experimental materials include 60 healthy male C57 mice (20-25 g per mouse, purchased from Chongqing […] Biotechnology Co., Ltd.), gavage needles, 1 milliliter (mL) syringes, CCI4 solution, olive oil, and gliclazide solution. An experimental method is as follows. The CCl4 solution is prepared by dissolving CCl4 in the olive oil (a volume ratio of CCl4 to olive oil is 1:4), and the prepared CCl4 solution should be used immediately. The gliclazide solution is prepared by dissolving gliclazide in physiological saline, the concentration of the gliclazide solution is 500 micromoles per liter (μM), and the prepared gliclazide solution should be used immediately. The mice are randomly divided into four groups including a, b, c, and d. • a. Normal control group. • b. Model group: mice are intragastrically administered with the CCl4 solution, 0.1 mL/20 g (i.e., 0.1. mL CC14 per 20 g of body weight of mice), twice a week for 8 weeks. • c. CCl4+gliclazide group: mice are intragastrically administered with the CCl4 solution alone, 0.1 mL/20 g, twice a week for 2 weeks; then the mice are given with the gliclazide solution and the CCl4 solution together for 6 weeks; and an administration method of the gliclazide solution is 0.2mL/20g and intraperitoneal injection once a day. • d. Gliclazide group: the gliclazide solution is intraperitoneally injected into mice for 8 weeks; and an administration method of the gliclazide solution is 0.2 mL/20 g and intraperitoneal injection once a day. The mice are sacrificed at the 2nd, 4th, 6th and 8th weeks of modeling respectively, and one mouse in each group is sacrificed each time. Hepatic samples obtained from the sacrificed mice are taken out and stored in liquid nitrogen at -80 Celsius degrees (° C.), and the other hepatic samples are fixed in paraformaldehyde with a concentration of 4% for 24 hours, then the other hepatic samples are embedding in paraffin. The degrees of severity of hepatic fibrosis are observed by appearance, Sirius-red staining, and hematoxylin-eosin (HE) staining. […]
# HSCs-T6 = assay: HSCs proliferation under co-culture of gliclazide and TGF-β1 detected by CCK8; type: cell-based, rat; conditions: TGF-β1 10 ng/mL, 48 hours, P<0.05
# Procedure: Experimental materials include HSCs-T6, a Dulbecco's modified eagle medium (DMEM) complete culture medium, a 96-well plate, a counting chamber (also referred to as hemocytometer), CCK-8 working solution, and the like. An experimental method is as follows. First, HSCs-T6 are cultured in the DMEM culture medium containing 10% fetal bovine serum, 1% double antibody (penicillin streptomycin solution) and 1% nonessential amino acid (NEAA), and the culture conditions include 37° C. and 5% CO2. The cells are digested by using trypsin for passage cultivation after the cells are converged to 80% to 90%. Next, the cells are inoculated in the plate, specifically, a density of […] cell suspension with a volume of 100 μL is added into each well of the 96-well plate, each group has 6 replicate wells. This experiment is divided into a control group and a TGF-β1 group, TGF-β1+gliclazide (the gliclazide used in this group has different concentrations of 50μM, 100μM, 150μM, and 200μM) medicament groups. After cell attachment, except for the control group and the TGF-β1 group, the other groups are added with gliclazide with the above concentrations respectively, and after 3 hours, TGF-β1 (10 ng/mL) is added to corresponding groups for stimulating HSCs of […]. After 48 hours of incubation, 100 μL mixed solution of “10% CCK8+90% culture medium” is added into each well. Then the incubation is performed at 37° C. for 1˜4 h, a wavelength is set at 450 nm, and an automatic enzyme analyzer is used to read and record absorbance values at the corresponding wavelength. The effects of gliclazide on cell proliferation are detected by CCK8, and the optimal action time and optimal medicament concentration are screened.
# p62 [7] = assay: p62 in hepatic tissues detected by Western blotting; type: in vivo, mouse; conditions: CCl4-induced hepatic fibrosis mice; gliclazide solution 500 μM intraperitoneal
# Procedure: as §2
# α-SMA [8] = assay: α-SMA in hepatic tissues detected by immunohistochemistry; type: in vivo, mouse; conditions: CCl4-induced hepatic fibrosis mice; gliclazide solution 500 μM intraperitoneal
# Procedure: The mice are randomly divided into four groups including a, b, c, and d. • a. Normal control group. • b. Model group: mice are intragastrically administered with the CCl4 solution, 0.1 mL/20 g (i.e., 0.1. mL CC14 per 20 g of body weight of mice), twice a week for 8 weeks. • c. CCl4+gliclazide group: mice are intragastrically administered with the CCl4 solution alone, 0.1 mL/20 g, twice a week for 2 weeks; then the mice are given with the gliclazide solution and the CCl4 solution together for 6 weeks; and an administration method of the gliclazide solution is 0.2mL/20g and intraperitoneal injection once a day. • d. Gliclazide group: the gliclazide solution is intraperitoneally injected into mice for 8 weeks; and an administration method of the gliclazide solution is 0.2 mL/20 g and intraperitoneal injection once a day. […] An experimental method is as follows.
# LC3 [9] = assay: LC3 in hepatic tissues detected by Western blotting; type: in vivo, mouse; conditions: CCl4-induced hepatic fibrosis mice; gliclazide solution 500 μM intraperitoneal
# Procedure: as §2
# [10] = CCl4+gliclazide group vs model group, 0.2 mL/20 g intraperitoneal once a day for 6 weeks
compound,measurement,setting,value
Cc1ccc(S(=O)(=O)NC(=O)NN2CC3CCCC3C2)cc1 (centres unmarked) [gliclazide],expression of LC3 in HSCs (Western blotting),LC3 [1],significantly decreases
same,expression level of autophagy substrate p62 in HSCs (Western blotting),p62 [2],significantly increases
same,expression of α-SMA in hepatic tissue (Western blotting),α-SMA [3],significantly decreases
same,expression of α-SMA in HSCs (Western blotting),α-SMA [4],significantly decreases
same,"protein expression level of α-SMA, gliclazide +TGF-β1 group vs TGF-β1 group",α-SMA [5],significantly lower
same,degree of hepatic fibrosis (HE staining),[6]; [10],significantly decreased
same,degree of hepatic tissue injury (HE staining),[6]; [10],significantly decreased
same,collagen fibers in hepatic tissue (Sirius-red staining),"[6]; gliclazide group without CCl4, 0.2 mL/20 g intraperitoneal once a day for 8 weeks",no obvious collagen fibers are observed
same,proliferation of HSC-T6 induced by TGF-β1 (CCK8),HSCs-T6; gliclazide 100 μM,inhibits the proliferation
same,proliferation of HSC-T6 induced by TGF-β1 (CCK8),HSCs-T6; gliclazide 150 μM,inhibits the proliferation
same,proliferation of HSC-T6 induced by TGF-β1 (CCK8),HSCs-T6; gliclazide 200 μM,inhibits the proliferation
same,expression level of autophagy substrate p62 in hepatic tissue (Western blotting),p62 [7],significantly increases
same,expression of α-SMA in hepatic tissues (immunohistochemistry),α-SMA [8],down-regulate
same,expression of LC3 in hepatic tissue (Western blotting),LC3 [9],significantly decreases
